# According to US8178571B2, “Unsubstituted and substituted 4-benzyl-1,3-dihydro-imidazole-2-thiones acting as specific or selective alpha2 adrenergic agonists and methods for using the same” (Allergan, Inc., priority 2004, dated 2012):
# Target: T1, alpha2A adrenergic receptor (Homo sapiens, UniProt P08913)
# T1 construct: expressed in transfected cells; host or cells: NIH-3T3 cells
# T1 sequence (P08913 1-465): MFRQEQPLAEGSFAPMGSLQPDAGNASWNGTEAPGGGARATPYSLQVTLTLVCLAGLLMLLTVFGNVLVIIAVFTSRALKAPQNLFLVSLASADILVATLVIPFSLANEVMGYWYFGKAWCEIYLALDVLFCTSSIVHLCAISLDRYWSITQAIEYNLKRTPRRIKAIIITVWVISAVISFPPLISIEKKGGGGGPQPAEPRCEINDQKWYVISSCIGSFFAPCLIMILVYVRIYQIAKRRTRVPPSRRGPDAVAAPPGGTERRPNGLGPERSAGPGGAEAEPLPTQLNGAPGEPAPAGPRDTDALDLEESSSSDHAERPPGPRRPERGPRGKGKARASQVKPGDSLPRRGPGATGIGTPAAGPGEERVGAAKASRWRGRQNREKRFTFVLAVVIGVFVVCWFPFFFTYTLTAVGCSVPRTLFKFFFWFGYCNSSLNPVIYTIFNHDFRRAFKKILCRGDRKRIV
# Assay: Receptor Selection and Amplification Technology (RSAT) assay, alpha2A
# Type: cell-based
# Settings: NIH-3T3 cells, ratio of maximal effect to that of standard full agonist brimonidine (UK14304), NA = not active at concentrations less than 10 micromolar
# Description: (§1) The imidazole-2-thione compounds of Formula 1 and the novel compounds 1 through 5 are used in accordance with the present invention as agonists of alpha2 adrenergic receptors. Some compounds of Formula 1 may act as specific or selective agonists of alpha2B and/or to alpha2C adrenergic receptors, in preference over alpha2A adrenergic receptors. […] The specific or selective activity of the compounds of Formula 1 in general and of the novel compounds of the invention can be tested in an assay titled Receptor Selection and Amplification technology (RSAT) assay, which is described in the publication by Messier et. Al., 1995, Pharmacol. Toxicol. 76, pp. 308-311 (incorporated herein by reference) and is also described below. […]
# (§2) The RSAT assay measures a receptor-mediated loss of contact inhibition that results in selective proliferation of receptor-containing cells in a mixed population of confluent cells. The increase in cell number is assessed with an appropriate transfected marker gene such as beta-galactosidase, the activity of which can be easily measured in a 96-well format. […]
# (§3) NIH-3T3 cells are plated at a density of 2×10^6 cells in 15 cm dishes and maintained in Dulbecco's modified Eagle's medium supplemented with 10% calf serum. […] The absorbance is a measure of enzyme activity, which depends on cell number and reflects a receptor-mediated cell proliferation. […]
row,SMILES,Intrinsic Activity Alpha 2A
1,"S=c1[nH]cc(Cc2c(Cl)cccc2Cl)[nH]1 [Compound 1, 4-(2,6-dichloro-benzyl)-1,3-dihydro-imidazole-2-thione]",0.74
2,"Fc1c(Cl)cccc1Cc1c[nH]c(=S)[nH]1 [Compound 2, 4-(3-chloro-2-fluoro-benzyl)-1,3-dihydro-imidazole-2-thione]",0.78

# Target: T2, alpha2B adrenergic receptor (Homo sapiens, UniProt P18089)
# T2 construct: expressed in transfected cells; host or cells: NIH-3T3 cells
# T2 sequence (P18089 1-450): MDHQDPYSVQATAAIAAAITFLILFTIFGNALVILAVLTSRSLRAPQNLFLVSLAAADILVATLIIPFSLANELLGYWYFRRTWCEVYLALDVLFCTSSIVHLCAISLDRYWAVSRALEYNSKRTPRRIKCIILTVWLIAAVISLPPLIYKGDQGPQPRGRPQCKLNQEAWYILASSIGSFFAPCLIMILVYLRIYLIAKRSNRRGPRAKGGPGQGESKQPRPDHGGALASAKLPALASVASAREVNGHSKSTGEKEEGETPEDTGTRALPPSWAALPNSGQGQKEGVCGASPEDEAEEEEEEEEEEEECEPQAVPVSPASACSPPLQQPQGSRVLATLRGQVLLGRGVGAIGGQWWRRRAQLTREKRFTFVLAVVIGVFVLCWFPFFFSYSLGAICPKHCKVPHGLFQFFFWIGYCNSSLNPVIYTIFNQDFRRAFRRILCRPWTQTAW
# Assay: Receptor Selection and Amplification Technology (RSAT) assay, alpha2B
# Type: cell-based
# Settings: RSAT, NIH-3T3 cells; ratio of maximal effect to that of standard full agonist brimonidine (UK14304); NA = not active at concentrations less than 10 micromolar
# Description: The imidazole-2-thione compounds of Formula 1 and the novel compounds 1 through 5 are used in accordance with the present invention as agonists of alpha2 adrenergic receptors. Some compounds of Formula 1 may act as specific or selective agonists of alpha2B and/or to alpha2C adrenergic receptors, in preference over alpha2A adrenergic receptors. […] The specific or selective activity of the compounds of Formula 1 in general and of the novel compounds of the invention can be tested in an assay titled Receptor Selection and Amplification technology (RSAT) assay, which is described in the publication by Messier et. Al., 1995, Pharmacol. Toxicol. 76, pp. 308-311 (incorporated herein by reference) and is also described below. Another reference pertinent to this assay is Conklin et al. (1993) Nature 363:274-6, Receptor Selection and Amplification Technology (RSAT) assay, also incorporated herein by reference.
# The RSAT assay measures a receptor-mediated loss of contact inhibition that results in selective proliferation of receptor-containing cells in a mixed population of confluent cells. The increase in cell number is assessed with an appropriate transfected marker gene such as beta-galactosidase, the activity of which can be easily measured in a 96-well format. Receptors that activate the G protein, Gq, elicit this response. Alpha2 receptors, which normally couple to Gi, activate the RSAT response when coexpressed with a hybrid Gq protein that has a Gi receptor recognition domain, called Gq/i5.
# NIH-3T3 cells are plated at a density of 2×10^6 cells in 15 cm dishes and maintained in Dulbecco's modified Eagle's medium supplemented with 10% calf serum. One day later, cells are cotransfected by calcium phosphate precipitation with mammalian expression plasmids encoding p-SV-beta-galactosidase (5-10 μg), receptor (1-2 μg) and G protein (1-2 μg). 40 μg salmon sperm DNA may also be included in the transfection mixture. Fresh media is added on the following day and 1-2 days later, cells are harvested and frozen in 50 assay aliquots. Cells are thawed and 100 μl added to 100 μl aliquots of various concentrations of drugs in triplicate in 96-well dishes. Incubations continue 72-96 hr at 37° C. After washing with phosphate-buffered saline, beta-galactosidase enzyme activity is determined by adding 200 μl of the chromogenic substrate (consisting of 3.5 mM o-nitrophenyl-beta-D-galactopyranoside and 0.5% nonidet P-40 in phosphate buffered saline), incubating overnight at 30° C. and measuring optical density at 420 nm. The absorbance is a measure of enzyme activity, which depends on cell number and reflects a receptor-mediated cell proliferation. The efficacy or intrinsic activity is calculated as a ratio of the maximal effect of the drug to the maximal effect of a standard full agonist for each receptor subtype. Brimonidine, also called UK14304, the chemical structure of which is shown below, is used as the standard agonist for the alpha2A, alpha2B and alpha2C receptors.
row,SMILES,Intrinsic Activity Alpha 2B
1,"S=c1[nH]cc(Cc2c(Cl)cccc2Cl)[nH]1 [Compound 1, 4-(2,6-dichloro-benzyl)-1,3-dihydro-imidazole-2-thione]",1.11
2,"Fc1ccccc1Cc1c[nH]c(=S)[nH]1 [Compound 3, 4-(2-fluoro-benzyl)-1,3-dihydro-imidazole-2-thione]",1.3
3,"Fc1ccc(Cc2c[nH]c(=S)[nH]2)cc1 [Compound 4, 4-(4-fluoro-benzyl)-1,3-dihydro-imidazole-2-thione]",0.92
4,"Fc1c(Cl)cccc1Cc1c[nH]c(=S)[nH]1 [Compound 2, 4-(3-chloro-2-fluoro-benzyl)-1,3-dihydro-imidazole-2-thione]",1.05
5,"N#Cc1ccc(-c2ccccc2Cc2c[nH]c(=S)[nH]2)cc1 [Compound 6, 2′-(2-Thioxo-2,3-dihydro-1H-imidazol-4-ylmethyl)-biphenyl-4-carbonitrile]",0.70
6,"S=c1[nH]cc(Cc2ccc(Cl)cc2Cl)[nH]1 [Compound 5, 4-(2,4-dichloro-benzyl)-1,3-dihydro-imidazole-2-thione]",0.95

# Same assay, conditions: statement in words, RSAT assay
row,SMILES,Specificity or selectivity for alpha2B (and/or alpha2C) over alpha2A adrenergic receptors
1,"Fc1ccccc1Cc1c[nH]c(=S)[nH]1 [Compound 3, 4-(2-fluoro-benzyl)-1,3-dihydro-imidazole-2-thione]",specific agonists of alpha2B agonists in preference over alpha2A and alpha2C adrenergic receptors
2,"Fc1ccc(Cc2c[nH]c(=S)[nH]2)cc1 [Compound 4, 4-(4-fluoro-benzyl)-1,3-dihydro-imidazole-2-thione]",specific agonists of alpha2B agonists in preference over alpha2A and alpha2C adrenergic receptors
3,"S=c1[nH]cc(Cc2ccc(Cl)cc2Cl)[nH]1 [Compound 5, 4-(2,4-dichloro-benzyl)-1,3-dihydro-imidazole-2-thione]",specific agonists of alpha2B agonists in preference over alpha2A and alpha2C adrenergic receptors

# Target: T3, alpha2C adrenergic receptor (Homo sapiens, UniProt P18825)
# T3 construct: expressed in transfected cells; host or cells: NIH-3T3 cells
# T3 sequence (P18825 1-462): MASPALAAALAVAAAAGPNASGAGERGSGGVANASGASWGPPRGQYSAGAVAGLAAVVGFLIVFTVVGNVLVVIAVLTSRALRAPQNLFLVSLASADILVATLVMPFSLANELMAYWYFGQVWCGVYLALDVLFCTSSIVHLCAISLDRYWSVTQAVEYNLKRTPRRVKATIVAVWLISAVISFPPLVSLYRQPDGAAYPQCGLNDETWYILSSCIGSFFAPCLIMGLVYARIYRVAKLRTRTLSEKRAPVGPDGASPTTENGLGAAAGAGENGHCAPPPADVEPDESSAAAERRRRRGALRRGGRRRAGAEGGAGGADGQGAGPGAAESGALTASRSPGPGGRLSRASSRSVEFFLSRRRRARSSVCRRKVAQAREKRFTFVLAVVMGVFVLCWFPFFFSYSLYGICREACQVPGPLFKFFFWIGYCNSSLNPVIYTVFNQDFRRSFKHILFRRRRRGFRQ
# Assay: Receptor Selection and Amplification Technology (RSAT) assay, alpha2C
# Type: cell-based
# Settings: NIH-3T3 cells, ratio of maximal effect to that of standard full agonist brimonidine (UK14304), NA = not active at concentrations less than 10 micromolar
# Description: as §1, §2, §3
row,SMILES,Intrinsic Activity Alpha 2C
1,"S=c1[nH]cc(Cc2c(Cl)cccc2Cl)[nH]1 [Compound 1, 4-(2,6-dichloro-benzyl)-1,3-dihydro-imidazole-2-thione]",1.18
2,"N#Cc1ccc(-c2ccccc2Cc2c[nH]c(=S)[nH]2)cc1 [Compound 6, 2′-(2-Thioxo-2,3-dihydro-1H-imidazol-4-ylmethyl)-biphenyl-4-carbonitrile]",0.71
